The source made the active and inactive calls. On the calls: in the data inactive means no Kd found up to 30 µM.

Here are results for 40 molecules from ChEMBL document CHEMBL3991601, “The target landscape of clinical kinase drugs” (Science, 2017).

The target of test [1] is Tyrosine-protein kinase JAK2 (Homo sapiens, UniProt O60674).
In test [2] the target is ALK tyrosine kinase receptor (Homo sapiens, UniProt Q9UM73). The format is subcellular, K-562, COLO 205, SK-N-BE(2) and MV-4-11, Cell lysate. Particulars: read-out: Kd apparent.
ALK tyrosine kinase receptor, sequence (Q9UM73 whole entry): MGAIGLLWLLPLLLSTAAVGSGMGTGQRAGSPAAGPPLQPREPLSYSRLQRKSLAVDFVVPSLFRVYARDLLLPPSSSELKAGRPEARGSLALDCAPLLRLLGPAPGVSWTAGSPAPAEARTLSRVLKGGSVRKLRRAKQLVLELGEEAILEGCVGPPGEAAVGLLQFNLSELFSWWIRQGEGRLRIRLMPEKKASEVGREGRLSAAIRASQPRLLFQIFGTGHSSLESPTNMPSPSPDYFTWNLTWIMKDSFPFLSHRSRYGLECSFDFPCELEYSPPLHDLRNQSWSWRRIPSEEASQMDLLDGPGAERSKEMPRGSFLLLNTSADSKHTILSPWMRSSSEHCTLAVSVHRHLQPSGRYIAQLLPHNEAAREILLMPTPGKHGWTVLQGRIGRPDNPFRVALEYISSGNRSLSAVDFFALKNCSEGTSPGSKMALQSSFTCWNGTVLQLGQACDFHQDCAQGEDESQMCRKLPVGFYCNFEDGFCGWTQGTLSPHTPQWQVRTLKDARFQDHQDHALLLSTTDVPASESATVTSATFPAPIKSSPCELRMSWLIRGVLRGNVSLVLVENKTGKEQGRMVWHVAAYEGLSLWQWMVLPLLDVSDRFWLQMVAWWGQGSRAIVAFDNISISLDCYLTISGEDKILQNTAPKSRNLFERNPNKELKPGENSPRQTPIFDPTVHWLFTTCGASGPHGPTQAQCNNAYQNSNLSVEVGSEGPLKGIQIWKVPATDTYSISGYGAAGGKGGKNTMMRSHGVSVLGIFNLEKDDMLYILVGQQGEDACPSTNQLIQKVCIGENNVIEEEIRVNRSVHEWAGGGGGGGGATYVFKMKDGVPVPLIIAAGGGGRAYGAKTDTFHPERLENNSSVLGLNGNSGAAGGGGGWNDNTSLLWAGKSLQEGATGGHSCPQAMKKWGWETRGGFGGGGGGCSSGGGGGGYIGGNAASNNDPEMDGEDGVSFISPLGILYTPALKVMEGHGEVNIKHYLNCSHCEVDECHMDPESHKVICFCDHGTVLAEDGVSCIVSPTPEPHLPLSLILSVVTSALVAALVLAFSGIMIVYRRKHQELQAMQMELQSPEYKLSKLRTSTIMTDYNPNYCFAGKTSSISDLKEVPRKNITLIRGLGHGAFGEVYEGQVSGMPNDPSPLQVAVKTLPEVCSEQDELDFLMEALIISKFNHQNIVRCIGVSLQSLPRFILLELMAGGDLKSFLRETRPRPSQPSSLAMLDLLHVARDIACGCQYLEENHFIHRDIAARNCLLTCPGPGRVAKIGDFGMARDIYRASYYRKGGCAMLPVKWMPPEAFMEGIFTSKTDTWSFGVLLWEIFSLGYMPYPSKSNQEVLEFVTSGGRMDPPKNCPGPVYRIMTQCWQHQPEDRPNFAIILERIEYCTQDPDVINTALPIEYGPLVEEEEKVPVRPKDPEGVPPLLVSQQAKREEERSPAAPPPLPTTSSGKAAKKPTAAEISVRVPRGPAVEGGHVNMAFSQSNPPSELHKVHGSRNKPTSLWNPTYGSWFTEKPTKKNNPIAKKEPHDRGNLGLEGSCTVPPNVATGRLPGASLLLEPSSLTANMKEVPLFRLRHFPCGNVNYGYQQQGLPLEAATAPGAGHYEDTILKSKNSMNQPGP
Test [3] has as its target Dual specificity tyrosine-phosphorylation-regulated kinase 1B (Homo sapiens, UniProt Q9Y463).
Test [4] deals with T1, Dual specificity mitogen-activated protein kinase kinase 4 (Homo sapiens, UniProt P45985).
T1 sequence (P45985 whole entry): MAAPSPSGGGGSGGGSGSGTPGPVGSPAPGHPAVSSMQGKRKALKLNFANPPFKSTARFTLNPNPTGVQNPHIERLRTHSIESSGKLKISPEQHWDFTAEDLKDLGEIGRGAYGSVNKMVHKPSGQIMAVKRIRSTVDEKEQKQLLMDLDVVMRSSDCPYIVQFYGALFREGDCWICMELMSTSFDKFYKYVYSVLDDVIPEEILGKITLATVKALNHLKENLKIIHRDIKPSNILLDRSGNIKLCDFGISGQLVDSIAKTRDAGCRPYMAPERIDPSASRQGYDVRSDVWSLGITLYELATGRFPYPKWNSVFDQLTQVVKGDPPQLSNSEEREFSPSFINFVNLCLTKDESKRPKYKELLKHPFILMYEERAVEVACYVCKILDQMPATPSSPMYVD

Test [5] deals with T2, Tyrosine-protein kinase Mer (Homo sapiens, UniProt Q12866).
T2 sequence (Q12866 whole entry): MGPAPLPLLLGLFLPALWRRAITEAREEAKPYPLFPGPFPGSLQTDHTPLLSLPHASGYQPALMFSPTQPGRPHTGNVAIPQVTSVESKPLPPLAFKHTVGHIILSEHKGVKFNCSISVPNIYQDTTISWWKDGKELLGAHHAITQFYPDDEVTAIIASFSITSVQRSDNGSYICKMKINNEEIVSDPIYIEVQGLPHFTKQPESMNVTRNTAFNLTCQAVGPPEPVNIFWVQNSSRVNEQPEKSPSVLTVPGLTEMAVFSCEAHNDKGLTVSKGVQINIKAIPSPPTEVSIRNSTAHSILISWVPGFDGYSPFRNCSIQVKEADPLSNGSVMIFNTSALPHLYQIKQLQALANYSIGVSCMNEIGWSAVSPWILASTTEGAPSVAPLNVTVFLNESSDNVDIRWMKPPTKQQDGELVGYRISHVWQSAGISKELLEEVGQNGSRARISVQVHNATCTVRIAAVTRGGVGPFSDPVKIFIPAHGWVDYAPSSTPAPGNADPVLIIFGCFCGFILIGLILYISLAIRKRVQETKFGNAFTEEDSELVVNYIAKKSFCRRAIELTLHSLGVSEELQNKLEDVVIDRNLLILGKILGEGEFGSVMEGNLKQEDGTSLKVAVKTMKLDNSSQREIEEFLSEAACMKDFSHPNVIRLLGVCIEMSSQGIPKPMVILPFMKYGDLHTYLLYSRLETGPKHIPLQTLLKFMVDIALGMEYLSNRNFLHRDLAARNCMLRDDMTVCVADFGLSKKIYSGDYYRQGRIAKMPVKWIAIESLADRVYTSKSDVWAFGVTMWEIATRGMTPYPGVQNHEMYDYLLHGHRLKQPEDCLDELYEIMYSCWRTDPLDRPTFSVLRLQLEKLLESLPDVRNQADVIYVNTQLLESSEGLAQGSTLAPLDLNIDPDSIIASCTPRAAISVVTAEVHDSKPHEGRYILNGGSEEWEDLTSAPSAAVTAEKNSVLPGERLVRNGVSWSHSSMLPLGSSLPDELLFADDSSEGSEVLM

Test [6] deals with Serine/threonine-protein kinase 38 (Homo sapiens, UniProt Q15208).
Serine/threonine-protein kinase 38, sequence (Q15208 whole entry): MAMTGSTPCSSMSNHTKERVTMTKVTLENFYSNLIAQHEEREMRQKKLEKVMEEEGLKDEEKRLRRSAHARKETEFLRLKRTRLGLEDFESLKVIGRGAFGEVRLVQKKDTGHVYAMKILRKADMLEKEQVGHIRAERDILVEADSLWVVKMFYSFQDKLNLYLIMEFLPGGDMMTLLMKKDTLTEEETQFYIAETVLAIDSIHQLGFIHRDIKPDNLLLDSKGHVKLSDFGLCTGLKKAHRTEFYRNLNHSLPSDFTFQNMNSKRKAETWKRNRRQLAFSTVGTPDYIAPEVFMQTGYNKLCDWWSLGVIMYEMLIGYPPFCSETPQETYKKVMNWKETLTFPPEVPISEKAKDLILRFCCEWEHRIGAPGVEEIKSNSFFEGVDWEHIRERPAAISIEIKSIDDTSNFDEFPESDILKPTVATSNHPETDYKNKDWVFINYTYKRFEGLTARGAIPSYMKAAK
Test [7] concerns the target Activin receptor type-1-like (Homo sapiens, UniProt P37023).

Tyrosine-protein kinase JAK2, sequence (O60674 whole entry): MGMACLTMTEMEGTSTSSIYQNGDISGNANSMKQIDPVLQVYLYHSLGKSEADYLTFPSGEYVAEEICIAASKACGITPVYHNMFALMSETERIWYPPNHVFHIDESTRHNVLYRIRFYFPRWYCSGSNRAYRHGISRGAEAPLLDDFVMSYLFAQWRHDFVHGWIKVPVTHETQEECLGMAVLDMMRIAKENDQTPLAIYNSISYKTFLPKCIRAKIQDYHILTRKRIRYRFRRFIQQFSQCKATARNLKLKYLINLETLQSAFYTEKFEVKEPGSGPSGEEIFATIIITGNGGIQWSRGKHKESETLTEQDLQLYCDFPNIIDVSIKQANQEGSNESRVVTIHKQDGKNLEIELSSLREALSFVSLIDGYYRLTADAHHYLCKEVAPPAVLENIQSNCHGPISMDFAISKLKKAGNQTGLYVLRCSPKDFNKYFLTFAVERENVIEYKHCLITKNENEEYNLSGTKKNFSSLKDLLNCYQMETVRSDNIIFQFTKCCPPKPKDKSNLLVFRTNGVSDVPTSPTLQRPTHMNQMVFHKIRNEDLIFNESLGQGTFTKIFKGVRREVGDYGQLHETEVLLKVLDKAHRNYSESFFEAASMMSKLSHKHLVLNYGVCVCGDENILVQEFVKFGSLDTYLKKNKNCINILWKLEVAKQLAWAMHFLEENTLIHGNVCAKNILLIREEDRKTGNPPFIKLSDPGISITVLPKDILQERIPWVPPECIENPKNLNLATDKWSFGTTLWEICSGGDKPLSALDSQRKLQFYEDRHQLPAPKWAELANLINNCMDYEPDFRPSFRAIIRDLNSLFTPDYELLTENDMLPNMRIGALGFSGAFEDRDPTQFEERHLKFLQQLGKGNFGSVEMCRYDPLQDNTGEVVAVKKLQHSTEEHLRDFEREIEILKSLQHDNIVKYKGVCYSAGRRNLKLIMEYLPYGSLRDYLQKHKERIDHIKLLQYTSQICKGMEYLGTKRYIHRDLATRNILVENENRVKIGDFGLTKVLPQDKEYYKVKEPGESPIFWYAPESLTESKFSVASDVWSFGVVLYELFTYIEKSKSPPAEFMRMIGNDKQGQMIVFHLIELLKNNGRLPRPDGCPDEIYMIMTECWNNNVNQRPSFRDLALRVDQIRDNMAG
Dual specificity tyrosine-phosphorylation-regulated kinase 1B, sequence (Q9Y463 whole entry): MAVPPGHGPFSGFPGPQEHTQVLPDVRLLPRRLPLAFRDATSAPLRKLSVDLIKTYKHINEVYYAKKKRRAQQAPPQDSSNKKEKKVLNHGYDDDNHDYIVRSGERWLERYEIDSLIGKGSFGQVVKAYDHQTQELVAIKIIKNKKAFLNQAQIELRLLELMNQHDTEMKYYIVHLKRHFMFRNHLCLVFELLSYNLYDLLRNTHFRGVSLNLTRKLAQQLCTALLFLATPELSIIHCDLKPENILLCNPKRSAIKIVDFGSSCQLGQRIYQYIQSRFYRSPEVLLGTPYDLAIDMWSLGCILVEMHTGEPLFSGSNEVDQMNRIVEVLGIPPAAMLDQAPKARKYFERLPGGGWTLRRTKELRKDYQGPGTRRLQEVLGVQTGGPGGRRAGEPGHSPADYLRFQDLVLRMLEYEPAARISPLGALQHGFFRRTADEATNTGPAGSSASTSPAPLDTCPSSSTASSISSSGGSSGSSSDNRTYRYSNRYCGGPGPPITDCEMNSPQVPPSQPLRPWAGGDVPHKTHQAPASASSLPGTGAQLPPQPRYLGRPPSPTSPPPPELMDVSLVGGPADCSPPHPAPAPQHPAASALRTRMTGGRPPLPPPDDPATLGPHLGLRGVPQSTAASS
Activin receptor type-1-like, sequence (P37023 whole entry): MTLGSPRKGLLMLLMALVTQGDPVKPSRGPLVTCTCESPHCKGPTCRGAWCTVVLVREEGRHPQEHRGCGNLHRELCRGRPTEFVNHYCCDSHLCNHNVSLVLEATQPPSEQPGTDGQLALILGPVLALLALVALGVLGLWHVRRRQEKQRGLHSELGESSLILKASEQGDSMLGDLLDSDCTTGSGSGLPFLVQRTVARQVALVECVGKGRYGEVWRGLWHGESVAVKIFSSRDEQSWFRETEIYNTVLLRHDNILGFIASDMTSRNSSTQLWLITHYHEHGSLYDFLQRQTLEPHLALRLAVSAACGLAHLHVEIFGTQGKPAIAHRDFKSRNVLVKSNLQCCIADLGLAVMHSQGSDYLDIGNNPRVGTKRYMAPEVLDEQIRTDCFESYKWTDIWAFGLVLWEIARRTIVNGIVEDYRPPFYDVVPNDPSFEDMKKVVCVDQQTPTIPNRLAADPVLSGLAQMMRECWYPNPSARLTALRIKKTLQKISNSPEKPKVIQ

Regarding `COc1cc2nccc(Oc3ccc(NC(=O)NC4CC4)c(Cl)c3)c2cc1C(N)=O` [LENVATINIB], the Kd in test [1] is > 30 µM (inactive). `Cc1ccc(NC(=O)c2ccc(CN3CC[C@H](N(C)C)C3)c(C(F)(F)F)c2)cc1Nc1nccc(-c2cncnc2)n1` [BAFETINIB]: the Kd in test [2], in test [3], in test [1] and in test [4] was > 30 µM (inactive) each time. Turning to `CC(C)Nc1cc(-c2c[nH]c(C(=O)N[C@H](CO)c3cccc(Cl)c3)c2)c(Cl)cn1` [ULIXERTINIB], the Kd in test [3], in test [4] and in test [5] was > 30 µM (inactive) in each case. In the case of `O=C(Nc1cccc(Cl)c1)Nc1ncc(CCNc2ncnc3ccsc23)s1` [SNS-314], the Kd in test [4] is > 30 µM (inactive). For `O=C1NC(=O)/C(=C/c2ccc3nccc(-c4ccncc4)c3c2)S1` [GSK-1059615], the Kd in test [2], in test [3] and in test [1] was > 30 µM (inactive) in each case. As to `C[C@@H]1CN(Cc2ccc(F)cc2)[C@@H](C)CN1C(=O)c1cc2c(C(=O)C(=O)N(C)C)cn(C)c2cc1Cl` [TALMAPIMOD], the Kd in test [6] was > 30 µM (inactive). In the case of `CCS(=O)(=O)N1CC(CC#N)(n2cc(-c3ncnc4[nH]ccc34)cn2)C1` [BARICITINIB], in test [7], the Kd was > 30 µM (inactive). Consider `COc1ccc(-c2ccc3c(N4CCOC[C@@H]4C)nc(N4CCOC[C@@H]4C)nc3n2)cc1CO` [AZD-8055], for which the Kd in test [3] and in test [4] was > 30 µM (inactive) in each case.

Take `CN1CC[C@@H](c2c(O)cc(O)c3c(=O)cc(-c4ccccc4Cl)oc23)[C@@H]1CO`: the Kd in test [5] is > 30 µM (inactive). Consider `C=CC(=O)N1CCC(Oc2cc3c(Nc4ccc(Cl)c(Cl)c4F)ncnc3cc2OC)CC1` [POZIOTINIB], for which the Kd in test [6] was > 30 µM (inactive). On to `Cc1ccc(-n2nc(C(C)(C)C)cc2NC(=O)NCc2cc(F)ccc2Oc2ccc3c(cnn3CCO)c2)cc1` [PEXMETINIB], for which the figures for the Kd in test [4], in test [5] and in test [6] were > 30 µM (inactive), 2.81 µM and > 30 µM (inactive), respectively.

For `Cc1c(F)cc(C(=O)NC2CC2)cc1-c1ccc(C(=O)NCC(C)(C)C)cn1` [LOSMAPIMOD], the Kd in test [5] and in test [6] was > 30 µM (inactive) each time. As to `Cc1cc(Nc2cc(N3CCN(C)CC3)nc(/C=C/c3ccccc3)n2)n[nH]1` [ENMD-2076], the Kd in test [7], in test [4] and in test [6] was > 30 µM (inactive) throughout. As to `CNC(=O)c1ccc(C)c(-n2c(C)cc(OCc3ccc(F)cc3F)c(Br)c2=O)c1` [PH-797804], the Kd in test [6] is > 30 µM (inactive). Regarding `Cc1nc(N)sc1-c1ccnc(Nc2ccc(N3CCOCC3)cc2)n1` [CYC-116], in test [4], the Kd was > 30 µM (inactive). Turning to `C[C@@H](Nc1cc(F)cc(F)c1)c1cc(C(=O)N(C)C)cc2c(=O)cc(N3CCOCC3)oc12` [AZD-8186], the Kd in test [6] was > 30 µM (inactive). With `CN1CCC(COc2cnc(-c3cccc(Cn4nc(-c5cccc(C#N)c5)ccc4=O)c3)nc2)CC1` [TEPOTINIB], the Kd in test [4] is > 30 µM (inactive). As to `COc1cc2nccc(Oc3ccc(NC(=O)Nc4cc(C)on4)c(Cl)c3)c2cc1OC` [TIVOZANIB], the Kd in test [4] and in test [5] was > 30 µM (inactive) in each case. For the molecule `CCCS(=O)(=O)Nc1ccc(F)c(C(=O)c2c[nH]c3ncc(-c4ccc(Cl)cc4)cc23)c1F` [VEMURAFENIB], the Kd in test [3], in test [1] and in test [5] was > 30 µM (inactive) in each case. With `O=C(O)[C@]1(Cc2cccc(Nc3nccs3)n2)CC[C@@H](Oc2cccc(Cl)c2F)CC1` [MK-5108], the Kd is > 30 µM (inactive) in test [3], 0.025 µM (active) in test [1], > 30 µM (inactive) in test [4] and > 30 µM (inactive) in test [6]. As for `COc1cc(OC)c(/C=C/S(=O)(=O)Cc2ccc(OC)c(NCC(=O)O)c2)c(OC)c1` [RIGOSERTIB], the Kd in test [6] was > 30 µM (inactive). As to `Cc1cc(-c2cc(O)ccc2Cl)cc2nnc(Nc3ccc(OCCN4CCCC4)cc3)nc12`, the Kd in test [2] and in test [3] was > 30 µM (inactive) each time. Regarding `OCCn1cc(-c2cnc3nnn(Cc4ccc5ncccc5c4)c3n2)cn1` [PF-04217903], the Kd in test [4], in test [5] and in test [6] was > 30 µM (inactive) throughout. As for `CCn1c(=O)c(-c2cc[nH]n2)cc2c(C)nc(N)nc21` [VOXTALISIB], in test [6], the Kd is > 30 µM (inactive). As to `Cc1cc2c(F)c(Oc3ncnn4cc(OC[C@@H](C)OC(=O)[C@H](C)N)c(C)c34)ccc2[nH]1` [BRIVANIB ALANINATE], the Kd in test [3], in test [1] and in test [4] was > 30 µM (inactive) in each case.

In the case of `CN1CCC(CNc2ccc3ncc(-c4cccc(OC(F)(F)F)c4)n3n2)CC1` [SGI-1776], the Kd in test [5] was > 30 µM (inactive). As to `COC(=O)N[C@@H](C)CNc1nccc(-c2cn(C(C)C)nc2-c2cc(Cl)cc(NS(C)(=O)=O)c2F)n1` [ENCORAFENIB], the Kd in test [3], in test [1] and in test [5] was > 30 µM (inactive) in each case.

Turning to `O=c1sn(-c2cccc3ccccc23)c(=O)n1Cc1ccccc1` [TIDEGLUSIB], in test [5], the Kd is > 30 µM (inactive).

As for `COC(=O)[C@@]1(O)C[C@H]2O[C@]1(C)n1c3ccccc3c3c4c(c5c6ccccc6n2c5c31)C(=O)NC4` [K-252A], the Kd in test [2] was > 30 µM (inactive); in test [3], > 30 µM (inactive); in test [4], > 30 µM (inactive); in test [5], 0.041 µM; in test [6] it was > 30 µM (inactive). In the case of `O=C(c1ccc(F)c(F)c1Nc1ccc(I)cc1F)N1CC(O)([C@@H]2CCCCN2)C1` [COBIMETINIB], the Kd in test [4] was > 30 µM (inactive).

Turning to `Cc1ccc(S(=O)(=O)Nc2nc3ccccc3nc2Nc2ccc3nsnc3c2)cc1`, the Kd in test [2] and in test [5] was > 30 µM (inactive) each time. As to `Cn1cc(-c2ccc(F)c(C(F)(F)F)c2)nc1C1CCN(c2ncnc3[nH]ncc23)CC1` [LY-2584702], the Kd in test [6] was > 30 µM (inactive). On to `CN(C)C(=O)c1cc2cnc(Nc3ccc(N4CCNCC4)cn3)nc2n1C1CCCC1` [RIBOCICLIB], for which the Kd in test [4] was > 30 µM (inactive). On to `O=C(Nc1ccc(-c2ccnc(Nc3ccc(N4CCOCC4)cc3)n2)cc1)C1CCCN1` (stereo not drawn) [XL-019], for which the Kd in test [2], in test [5] and in test [6] was > 30 µM (inactive) in each case.

Take `CNC(=O)CN1CCC(Oc2cc3c(Nc4cccc(Cl)c4F)ncnc3cc2OC)CC1` [SAPITINIB]: the Kd in test [4] and in test [5] was > 30 µM (inactive) in each case. For the molecule `Cc1cc([C@@H](C)Nc2ccccc2C(=O)O)c2nc(N3CCOCC3)cc(=O)n2c1` [AZD-6482], the Kd in test [4], in test [5] and in test [6] was > 30 µM (inactive) in each case. `CCN1CCN(Cc2ccc(-c3cc4c(N[C@H](C)c5ccccc5)ncnc4[nH]3)cc2)CC1` [AEE-788]: the Kd in test [2] and in test [5] was > 30 µM (inactive) each time.

As for `CN1N=C(N)c2cn([C@@H]3O[C@H](COP(=O)(O)O)[C@@H](O)[C@H]3O)c3ncnc1c23` [TRICIRIBINE PHOSPHATE], the Kd in test [3] is > 30 µM (inactive).

`COCCNCc1ccc(-c2cc3nccc(Oc4ccc(NC(=S)NC(=O)Cc5ccc(F)cc5)cc4F)c3s2)nc1` [GLESATINIB]: in test [4], the Kd is > 30 µM (inactive).

As to `CNS(=O)(=O)Nc1nccc(Cc2c(C)c3ccc(Oc4ncccn4)cc3oc2=O)c1F` [AVUTOMETINIB], the Kd in test [1] and in test [4] was > 30 µM (inactive) throughout.
